{"source": "patent US11738019B2", "about": "“Substituted heterocycles as antiviral agents” (ENANTA PHARMACEUTICALS, INC., priority 2019, dated 2023)", "key": {"[1]": {"tested_on": "HBV (2.2.15 cells)", "experiment": "HBV viral product reduction in 2.2.15 cells (qPCR / HBsAg or HBeAg ELISA)", "assay_type": "cell-based", "settings": "Hepatitis B virus, 120 h, day 5 post treatment, concentration reducing viral product accumulation in cell lysates or supernatants by 50% relative to no drug controls", "experimental": "2.2.15 cells are passaged upon attaining confluency in DMEM/F12 media in the presence of 10% FBS, Penn/Strep, and 250 ug/mL G418. Novel compounds are 5 fold serially diluted in DMSO and added to 96 well plates containing 35,000 cells/well at a 1:200 dilution so that the final concentration of DMSO is 0.5%. On day 5, post treatment cell lysates and supernatants are harvested for analysis.\nCells are lysed using Agilent Sidestep Lysis buffer, diluted 1:100 and quantified via quantitative real time PCR. Commercially available ELISA kits are used to quantitate the viral proteins HBsAg (Alpco) or HBeAg (US Biological) by following the manufacturer's recommended protocol after diluting samples to match the linear range of their respective assays. Irrespective of readout, compound concentrations that reduce viral product accumulation in the cell lysates or supernatants by 50% relative to no drug controls (EC50) are reported; EC50 ranges are as follows: A<0.1 μM; B 0.1-1 μM; C>1 μM."}, "[2]": {"experiment": "compound induced cellular toxicity in HepG2 cells (ATPlite 1Step)", "assay_type": "cell-based", "settings": "human, three days, concentration reducing total ATP levels by 50% relative to no drug controls", "experimental": "At day 3, post seeding cells are treated with ATPlite 1Step according to the manufacturer's instructions."}}}
{"smiles": "CC(C)(C)[C@@H]1Cc2c(cc(-c3cnsc3)c3ccoc23)-c2cc(=O)c(C(=O)O)cn21", "note": "[Example 11, (S)-5-(tert-butyl)-12-(isothiazol-4-yl)-9-oxo-4,9-dihydro-5H-furo[2,3-f]pyrido[2,1-a]isoquinoline-8-carboxylic acid]", "values": [{"measurement": "EC50", "setting": "[1]", "value": "< 0.1", "unit": "µM"}, {"measurement": "CC50 at 3 days", "setting": "[2]", "value": "> 25", "unit": "µM"}]}
{"smiles": "CC(C)(C)[C@@H]1Cc2c(cc(-c3cnco3)c3ccoc23)-c2cc(=O)c(C(=O)O)cn21", "note": "[Example 12, (S)-5-(tert-butyl)-12-(oxazol-5-yl)-9-oxo-4,9-dihydro-5H-furo[2,3-f]pyrido[2,1-a]isoquinoline-8-carboxylic acid]", "values": [{"measurement": "EC50", "setting": "[1]", "value": "< 0.1", "unit": "µM"}, {"measurement": "CC50 at 3 days", "setting": "[2]", "value": "> 25", "unit": "µM"}]}
{"smiles": "CC(C)(C)[C@@H]1Cc2c(cc(-c3ccoc3)c3occc23)-c2cc(=O)c(C(=O)O)cn21", "note": "[Example 13, (S)-5-(tert-butyl)-12-(furan-3-yl)-9-oxo-4,9-dihydro-5H-furo[3,2-f]pyrido[2,1-a]isoquinoline-8-carboxylic acid]", "values": [{"measurement": "EC50", "setting": "[1]", "value": "< 0.1", "unit": "µM"}, {"measurement": "CC50 at 3 days", "setting": "[2]", "value": "10 to 25", "unit": "µM"}]}
{"smiles": "Cn1nccc1-c1cc2c(c3occc13)C[C@@H](C(C)(C)C)n1cc(C(=O)O)c(=O)cc1-2", "note": "[Example 14, (S)-5-(tert-butyl)-12-(1-methyl-1H-pyrazol-5-yl)-9-oxo-4,9-dihydro-5H-furo[2,3-f]pyrido[2,1-a]isoquinoline-8-carboxylic acid]", "values": [{"measurement": "EC50", "setting": "[1]", "value": "< 0.1", "unit": "µM"}, {"measurement": "CC50 at 3 days", "setting": "[2]", "value": "> 25", "unit": "µM"}]}
{"smiles": "Cn1cc(-c2cc3c(c4occc24)C[C@@H](C(C)(C)C)n2cc(C(=O)O)c(=O)cc2-3)cn1", "note": "[Example 15, (S)-5-(tert-butyl)-12-(1-methyl-1H-pyrazol-4-yl)-9-oxo-4,9-dihydro-5H-furo[2,3-f]pyrido[2,1-a]isoquinoline-8-carboxylic acid]", "values": [{"measurement": "EC50", "setting": "[1]", "value": "< 0.1", "unit": "µM"}, {"measurement": "CC50 at 3 days", "setting": "[2]", "value": "> 25", "unit": "µM"}]}
{"smiles": "Cn1ccc(-c2cc3c(c4occc24)C[C@@H](C(C)(C)C)n2cc(C(=O)O)c(=O)cc2-3)n1", "note": "[Example 16, (S)-5-(tert-butyl)-12-(1-methyl-1H-pyrazol-3-yl)-9-oxo-4,9-dihydro-5H-furo[2,3-f]pyrido[2,1-a]isoquinoline-8-carboxylic acid]", "values": [{"measurement": "EC50", "setting": "[1]", "value": "< 0.1", "unit": "µM"}, {"measurement": "CC50 at 3 days", "setting": "[2]", "value": "10 to 25", "unit": "µM"}]}
{"smiles": "CC(C)(C)[C@@H]1Cc2c(cc(-c3cscn3)c3ccoc23)-c2cc(=O)c(C(=O)O)cn21", "note": "[Example 17, (S)-5-(tert-butyl)-9-oxo-12-(thiazol-4-yl)-4,9-dihydro-5H-furo[2,3-f]pyrido[2,1-a]isoquinoline-8-carboxylic acid]", "values": [{"measurement": "EC50", "setting": "[1]", "value": "< 0.1", "unit": "µM"}, {"measurement": "CC50 at 3 days", "setting": "[2]", "value": "> 25", "unit": "µM"}]}
{"smiles": "CC(C)(C)[C@@H]1Cc2c(cc(N3CCCC3)c3ccoc23)-c2cc(=O)c(C(=O)O)cn21", "note": "[Example 18, (S)-5-(tert-butyl)-9-oxo-12-(pyrrolidin-1-yl)-4,9-dihydro-5H-furo[2,3-f]pyrido[2,1-a]isoquinoline-8-carboxylic acid]", "values": [{"measurement": "EC50", "setting": "[1]", "value": "< 0.1", "unit": "µM"}, {"measurement": "CC50 at 3 days", "setting": "[2]", "value": "> 25", "unit": "µM"}]}
{"smiles": "CC(C)(C)[C@@H]1Cc2c(cc(N3CCC(F)(F)C3)c3ccoc23)-c2cc(=O)c(C(=O)O)cn21", "note": "[Example 19, (S)-5-(tert-butyl)-12-(3,3-difluoropyrrolidin-1-yl)-9-oxo-4,9-dihydro-5H-furo[2,3-f]pyrido[2,1-a]isoquinoline-8-carboxylic acid]", "values": [{"measurement": "EC50", "setting": "[1]", "value": "< 0.1", "unit": "µM"}, {"measurement": "CC50 at 3 days", "setting": "[2]", "value": "10 to 25", "unit": "µM"}]}
